Values after ≈ are worked out from the molar mass of the structure shown.
Key:
Assay in all cases: in vitro antibacterial evaluation, MIC by broth dilution
Type in all cases: cell-based
Streptococcus sp. = details: broth dilution, 18 hours at 35° C.; for MIC Streptococcus pneumoniae (ATCC 6301): strain ATCC 6301; for MIC Streptococcus pneumoniae (GC 1894): strain GC 1894; for MIC Streptococcus pyogenes (GC 4563): strain GC 4563; for MIC Streptococcus agalactiae (GC 4564): strain GC 4564; for MIC Streptococcus pneumoniae (GC 4565): strain GC 4565
Summary of the method: (§1)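 MIC, the lowest antibiotic concentration preventing growth, was read across 64-0.06 μg/mL with 5×10^5 CFU/mL inoculum. Method followed NCCLS M7-A2 broth dilution using Mueller-Hinton II; Gram-positive strains covered recent methicillin-, penicillin- and/or vancomycin-resistant clinical isolates.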

Staphylococcus sp. = details: broth dilution, 18 hours at 35° C.; for MIC Staphylococcus aureus (GC 1131): strain GC 1131
Summary of the method: as §1

Escherichia coli = tested on: Escherichia coli
Summary of the method: as §1

Enterococcus sp. = details: broth dilution, 18 hours at 35° C.; for MIC Enterococcus faecalis (ATCC 29212): strain ATCC 29212; for MIC Enterococcus faecalis (GC 2242): strain GC 2242; for MIC Enterococcus faecium (GC 2243): strain GC 2243; for MIC Enterococcus faecalis (GC 2691): strain GC 2691; for MIC Enterococcus faecalis (GC 3059): strain GC 3059; for MIC Enterococcus faecalis (GC 4552): strain GC 4552; for MIC Enterococcus faecalis (GC 4553): strain GC 4553; for MIC Enterococcus faecalis (GC 4554): strain GC 4554; for MIC Enterococcus faecium (GC 4556): strain GC 4556; for MIC Enterococcus faecium (GC 4557): strain GC 4557; for MIC Enterococcus avium (GC 4558): strain GC 4558; for MIC Enterococcus faecalis (GC 6189): strain GC 6189
Summary of the method: as §1

MIC Streptococcus pneumoniae (ATCC 6301) (Streptococcus sp.; inoculum 5×10^5 CFU/mL): <0.06 µg/mL | MIC Streptococcus pneumoniae (GC 1894) (Streptococcus sp.; inoculum 5×10^5 CFU/mL): <0.06 µg/mL | MIC Streptococcus pyogenes (GC 4563) (Streptococcus sp.; inoculum 5×10^5 CFU/mL): 0.5 µg/mL (≈ 0.326 µM) | MIC Streptococcus agalactiae (GC 4564) (Streptococcus sp.; inoculum 5×10^5 CFU/mL): <0.06 µg/mL | MIC Streptococcus pneumoniae (GC 4565) (Streptococcus sp.; inoculum 5×10^5 CFU/mL): <0.06 µg/mL | MIC Streptococcus pneumoniae (ATCC 6301) (Streptococcus sp.): <0.06 µg/mL | MIC Streptococcus pneumoniae (GC 1894) (Streptococcus sp.): <0.06 µg/mL | MIC Streptococcus pyogenes (GC 4563) (Streptococcus sp.): 0.5 µg/mL (≈ 0.326 µM) | MIC Streptococcus agalactiae (GC 4564) (Streptococcus sp.): <0.06 µg/mL | MIC Streptococcus pneumoniae (GC 4565) (Streptococcus sp.): <0.06 µg/mL | MIC Staphylococcus aureus (GC 1131) (Staphylococcus sp.; inoculum 5×10^5 CFU/mL): 4 µg/mL (≈ 2.61 µM) | MIC Staphylococcus aureus (ATCC 29213) (Staphylococcus sp.; strain ATCC 29213): 4 µg/mL (≈ 2.61 µM) | MIC Staphylococcus aureus (GC 1131) (Staphylococcus sp.): 4 µg/mL (≈ 2.61 µM) | MIC Staphylococcus aureus (GC 3051) (Staphylococcus sp.; strain GC 3051): 4 µg/mL (≈ 2.61 µM) | MIC Staphylococcus aureus (GC 3053) (Staphylococcus sp.; strain GC 3053): 4 µg/mL (≈ 2.61 µM) | MIC Staphylococcus aureus (GC 4541) (Staphylococcus sp.; strain GC 4541): 4 µg/mL (≈ 2.61 µM) | MIC Staphylococcus aureus (GC 4542) (Staphylococcus sp.; strain GC 4542): 4 µg/mL (≈ 2.61 µM) | MIC Staphylococcus aureus (GC 4544) (Staphylococcus sp.; strain GC 4544): 4 µg/mL (≈ 2.61 µM) | MIC Staphylococcus aureus (GC 4545) (Staphylococcus sp.; strain GC 4545): 4 µg/mL (≈ 2.61 µM) | MIC Staphylococcus aureus-SMITH (GC 4543) (Staphylococcus sp.; strain GC 4543): 4 µg/mL (≈ 2.61 µM) | MIC Coagulase Negative Staphylococcus (GC 4547) (Staphylococcus sp.; strain GC 4547): 8 µg/mL (≈ 5.22 µM) | MIC Coagulase Negative Staphylococcus (GC 4548) (Staphylococcus sp.; strain GC 4548): 2 µg/mL (≈ 1.31 µM) | MIC Coagulase Negative Staphylococcus (GC 4549) (Staphylococcus sp.; strain GC 4549): 1 µg/mL (≈ 0.653 µM) | MIC Coagulase Negative Staphylococcus (GC 4551) (Staphylococcus sp.; strain GC 4551): 2 µg/mL (≈ 1.31 µM) | MIC Coagulase Negative Staphylococcus (GC 6257) (Staphylococcus sp.; strain GC 6257): 2 µg/mL (≈ 1.31 µM) | MIC Escherichia coli (ATCC 25922) (Escherichia coli; strain ATCC 25922, 18 hours at 35° C.): >64 µg/mL | MIC Escherichia coli (GC 4559) (Escherichia coli; strain GC 4559, 18 hours at 35° C.): >64 µg/mL | MIC Escherichia coli (GC 4560) (Escherichia coli; strain GC 4560, 18 hours at 35° C.): 16 µg/mL (≈ 10.4 µM) | MIC Enterococcus faecalis (ATCC 29212) (Enterococcus sp.; inoculum 5×10^5 CFU/mL): 2 µg/mL (≈ 1.31 µM) | MIC Enterococcus faecalis (GC 2242) (Enterococcus sp.; inoculum 5×10^5 CFU/mL): 2 µg/mL (≈ 1.31 µM) | MIC Enterococcus faecium (GC 2243) (Enterococcus sp.; inoculum 5×10^5 CFU/mL): 2 µg/mL (≈ 1.31 µM) | MIC Enterococcus faecalis (GC 2691) (Enterococcus sp.; inoculum 5×10^5 CFU/mL): 4 µg/mL (≈ 2.61 µM) | MIC Enterococcus faecalis (GC 3059) (Enterococcus sp.; inoculum 5×10^5 CFU/mL): 4 µg/mL (≈ 2.61 µM) | MIC Enterococcus faecalis (GC 4552) (Enterococcus sp.; inoculum 5×10^5 CFU/mL): 2 µg/mL (≈ 1.31 µM) | MIC Enterococcus faecalis (GC 4553) (Enterococcus sp.; inoculum 5×10^5 CFU/mL): 1 µg/mL (≈ 0.653 µM) | MIC Enterococcus faecalis (GC 4554) (Enterococcus sp.; inoculum 5×10^5 CFU/mL): 2 µg/mL (≈ 1.31 µM) | MIC Enterococcus faecium (GC 4556) (Enterococcus sp.; inoculum 5×10^5 CFU/mL): 4 µg/mL (≈ 2.61 µM) | MIC Enterococcus faecium (GC 4557) (Enterococcus sp.; inoculum 5×10^5 CFU/mL): 4 µg/mL (≈ 2.61 µM) | MIC Enterococcus avium (GC 4558) (Enterococcus sp.; inoculum 5×10^5 CFU/mL): 4 µg/mL (≈ 2.61 µM) | MIC Enterococcus faecalis (GC 6189) (Enterococcus sp.; inoculum 5×10^5 CFU/mL): 2 µg/mL (≈ 1.31 µM) | MIC Enterococcus faecalis (ATCC 29212) (Enterococcus sp.): 2 µg/mL (≈ 1.31 µM) | MIC Enterococcus faecalis (GC 2242) (Enterococcus sp.): 2 µg/mL (≈ 1.31 µM) | MIC Enterococcus faecium (GC 2243) (Enterococcus sp.): 2 µg/mL (≈ 1.31 µM) | MIC Enterococcus faecalis (GC 2691) (Enterococcus sp.): 4 µg/mL (≈ 2.61 µM) | MIC Enterococcus faecalis (GC 3059) (Enterococcus sp.): 4 µg/mL (≈ 2.61 µM) | MIC Enterococcus faecalis (GC 4552) (Enterococcus sp.): 2 µg/mL (≈ 1.31 µM) | MIC Enterococcus faecalis (GC 4553) (Enterococcus sp.): 1 µg/mL (≈ 0.653 µM) | MIC Enterococcus faecalis (GC 4554) (Enterococcus sp.): 2 µg/mL (≈ 1.31 µM) | MIC Enterococcus faecium (GC 4556) (Enterococcus sp.): 4 µg/mL (≈ 2.61 µM) | MIC Enterococcus faecium (GC 4557) (Enterococcus sp.): 4 µg/mL (≈ 2.61 µM) | MIC Enterococcus avium (GC 4558) (Enterococcus sp.): 4 µg/mL (≈ 2.61 µM) | MIC Enterococcus faecalis (GC 6189) (Enterococcus sp.): 2 µg/mL (≈ 1.31 µM)
SMILES: CC(c1ccccc1)C1NC(=O)CNC(=O)C(CO)NC(=O)C(C(O)C2CNC(=N)N2C2OC(CO)C(O)C(O)C2O)NC(=O)C(C(O)C2CNC(=N)N2)NC(=O)C(Cc2ccc(OC3OC(CO)C(OC4OC5COC(c6ccc(Oc7ccc(C(C)(C)C)cc7)cc6)OC5C(O)C4O)C(O)C3O)cc2)NC1=O (centres unmarked) [Example 181]
MIC Staphylococcus haemolyticus (GC 4546) (Staphylococcus sp.; strain GC 4546): 8 µg/mL (≈ 5.22 µM)

Reference: patent US6914045B2, “Glycopeptide antibiotics” (Wyeth Holdings Corporation, priority 2001, dated 2005)
